From ChEMBL document CHEMBL5625277, “Systematical mutational analysis of teriparatide on anti-osteoporosis activity by alanine scanning” (Bioorg Med Chem Lett, 2024)

Assay: Cytotoxicity in pre-osteoblasts (unknown origin) assessed as cell death upto 5 uM by CCK8 assay
Assay type: toxicity, cell-based
Details: pre-osteoblast

Q: Which Activity does the source give for `CC[C@H](C)[C@H](NC(=O)[C@H](CCC(=O)O)NC(=O)[C@H](CO)NC(=O)[C@H](C)NC(=O)[C@H](CO)NC(C)=O)C(=O)N[C@@H](CCC(N)=O)C(=O)N[C@@H](CC(C)C)C(=O)N[C@@H](CCSC)C(=O)N[C@@H](Cc1cnc[nH]1)C(=O)N[C@@H](CC(N)=O)C(=O)N[C@@H](CC(C)C)C(=O)NCC(=O)N[C@@H](CCCCN)C(=O)N[C@@H](Cc1cnc[nH]1)C(=O)N[C@@H](CC(C)C)C(=O)N[C@@H](CC(N)=O)C(=O)N[C@@H](CO)C(=O)N[C@@H](CCSC)C(=O)N[C@@H](CCC(=O)O)C(=O)N[C@@H](CCCNC(=N)N)C(=O)N[C@H](C(=O)N[C@@H](CCC(=O)O)C(=O)N[C@@H](Cc1c[nH]c2ccccc12)C(=O)N[C@@H](CC(C)C)C(=O)N[C@@H](CCCNC(=N)N)C(=O)N[C@@H](CCCCN)C(=O)N[C@@H](CCCCN)C(=O)N[C@@H](CC(C)C)C(=O)N[C@@H](CCC(N)=O)C(=O)N[C@@H](CC(=O)O)C(=O)N[C@H](C(=O)N[C@@H](Cc1cnc[nH]1)C(=O)N[C@@H](CC(N)=O)C(=O)N[C@@H](Cc1ccccc1)C(N)=O)C(C)C)C(C)C` here?
A: Its Activity is “Non-Toxic”.

Q: Which Activity does the source give for `CC[C@H](C)[C@H](NC(=O)[C@H](CCC(=O)O)NC(=O)[C@H](CO)NC(=O)[C@@H](NC(=O)[C@H](CO)NC(C)=O)C(C)C)C(=O)N[C@@H](CCC(N)=O)C(=O)N[C@@H](CC(C)C)C(=O)N[C@@H](CCSC)C(=O)N[C@@H](Cc1cnc[nH]1)C(=O)N[C@@H](CC(N)=O)C(=O)N[C@@H](CC(C)C)C(=O)N[C@@H](C)C(=O)N[C@@H](CCCCN)C(=O)N[C@@H](Cc1cnc[nH]1)C(=O)N[C@@H](CC(C)C)C(=O)N[C@@H](CC(N)=O)C(=O)N[C@@H](CO)C(=O)N[C@@H](CCSC)C(=O)N[C@@H](CCC(=O)O)C(=O)N[C@@H](CCCNC(=N)N)C(=O)N[C@H](C(=O)N[C@@H](CCC(=O)O)C(=O)N[C@@H](Cc1c[nH]c2ccccc12)C(=O)N[C@@H](CC(C)C)C(=O)N[C@@H](CCCNC(=N)N)C(=O)N[C@@H](CCCCN)C(=O)N[C@@H](CCCCN)C(=O)N[C@@H](CC(C)C)C(=O)N[C@@H](CCC(N)=O)C(=O)N[C@@H](CC(=O)O)C(=O)N[C@H](C(=O)N[C@@H](Cc1cnc[nH]1)C(=O)N[C@@H](CC(N)=O)C(=O)N[C@@H](Cc1ccccc1)C(N)=O)C(C)C)C(C)C` here?
A: The Activity was “Non-Toxic”.

Q: With `CC[C@H](C)[C@H](NC(=O)[C@H](CCC(=O)O)NC(=O)[C@H](CO)NC(=O)[C@@H](NC(=O)[C@H](C)NC(C)=O)C(C)C)C(=O)N[C@@H](CCC(N)=O)C(=O)N[C@@H](CC(C)C)C(=O)N[C@@H](CCSC)C(=O)N[C@@H](Cc1cnc[nH]1)C(=O)N[C@@H](CC(N)=O)C(=O)N[C@@H](CC(C)C)C(=O)NCC(=O)N[C@@H](CCCCN)C(=O)N[C@@H](Cc1cnc[nH]1)C(=O)N[C@@H](CC(C)C)C(=O)N[C@@H](CC(N)=O)C(=O)N[C@@H](CO)C(=O)N[C@@H](CCSC)C(=O)N[C@@H](CCC(=O)O)C(=O)N[C@@H](CCCNC(=N)N)C(=O)N[C@H](C(=O)N[C@@H](CCC(=O)O)C(=O)N[C@@H](Cc1c[nH]c2ccccc12)C(=O)N[C@@H](CC(C)C)C(=O)N[C@@H](CCCNC(=N)N)C(=O)N[C@@H](CCCCN)C(=O)N[C@@H](CCCCN)C(=O)N[C@@H](CC(C)C)C(=O)N[C@@H](CCC(N)=O)C(=O)N[C@@H](CC(=O)O)C(=O)N[C@H](C(=O)N[C@@H](Cc1cnc[nH]1)C(=O)N[C@@H](CC(N)=O)C(=O)N[C@@H](Cc1ccccc1)C(N)=O)C(C)C)C(C)C` as the molecule, how does the Activity read?
A: Its Activity is “Non-Toxic”.

Q: For `CC[C@H](C)[C@H](NC(=O)[C@H](CCC(=O)O)NC(=O)[C@H](CO)NC(=O)[C@@H](NC(=O)[C@H](CO)NC(C)=O)C(C)C)C(=O)N[C@@H](CCC(N)=O)C(=O)N[C@@H](CC(C)C)C(=O)N[C@@H](CCSC)C(=O)N[C@@H](Cc1cnc[nH]1)C(=O)N[C@@H](CC(N)=O)C(=O)N[C@@H](CC(C)C)C(=O)NCC(=O)N[C@@H](CCCCN)C(=O)N[C@@H](Cc1cnc[nH]1)C(=O)N[C@@H](CC(C)C)C(=O)N[C@@H](CC(N)=O)C(=O)N[C@@H](CO)C(=O)N[C@@H](CCSC)C(=O)N[C@@H](CCC(=O)O)C(=O)N[C@@H](CCCNC(=N)N)C(=O)N[C@H](C(=O)N[C@@H](CCC(=O)O)C(=O)N[C@@H](Cc1c[nH]c2ccccc12)C(=O)N[C@@H](CC(C)C)C(=O)N[C@@H](C)C(=O)N[C@@H](CCCCN)C(=O)N[C@@H](CCCCN)C(=O)N[C@@H](CC(C)C)C(=O)N[C@@H](CCC(N)=O)C(=O)N[C@@H](CC(=O)O)C(=O)N[C@H](C(=O)N[C@@H](Cc1cnc[nH]1)C(=O)N[C@@H](CC(N)=O)C(=O)N[C@@H](Cc1ccccc1)C(N)=O)C(C)C)C(C)C`, which Activity is on record?
A: The Activity was “Non-Toxic”.

Q: With `CC[C@H](C)[C@H](NC(=O)[C@H](CCC(=O)O)NC(=O)[C@H](C)NC(=O)[C@@H](NC(=O)[C@H](CO)NC(C)=O)C(C)C)C(=O)N[C@@H](CCC(N)=O)C(=O)N[C@@H](CC(C)C)C(=O)N[C@@H](CCSC)C(=O)N[C@@H](Cc1cnc[nH]1)C(=O)N[C@@H](CC(N)=O)C(=O)N[C@@H](CC(C)C)C(=O)NCC(=O)N[C@@H](CCCCN)C(=O)N[C@@H](Cc1cnc[nH]1)C(=O)N[C@@H](CC(C)C)C(=O)N[C@@H](CC(N)=O)C(=O)N[C@@H](CO)C(=O)N[C@@H](CCSC)C(=O)N[C@@H](CCC(=O)O)C(=O)N[C@@H](CCCNC(=N)N)C(=O)N[C@H](C(=O)N[C@@H](CCC(=O)O)C(=O)N[C@@H](Cc1c[nH]c2ccccc12)C(=O)N[C@@H](CC(C)C)C(=O)N[C@@H](CCCNC(=N)N)C(=O)N[C@@H](CCCCN)C(=O)N[C@@H](CCCCN)C(=O)N[C@@H](CC(C)C)C(=O)N[C@@H](CCC(N)=O)C(=O)N[C@@H](CC(=O)O)C(=O)N[C@H](C(=O)N[C@@H](Cc1cnc[nH]1)C(=O)N[C@@H](CC(N)=O)C(=O)N[C@@H](Cc1ccccc1)C(N)=O)C(C)C)C(C)C` as the molecule, how does the Activity read?
A: The Activity was “Non-Toxic”.

Q: Which Activity does the source give for `CC[C@H](C)[C@H](NC(=O)[C@H](CCC(=O)O)NC(=O)[C@H](CO)NC(=O)[C@@H](NC(=O)[C@H](CO)NC(C)=O)C(C)C)C(=O)N[C@@H](CCC(N)=O)C(=O)N[C@@H](CC(C)C)C(=O)N[C@@H](CCSC)C(=O)N[C@@H](Cc1cnc[nH]1)C(=O)N[C@@H](CC(N)=O)C(=O)N[C@@H](CC(C)C)C(=O)NCC(=O)N[C@@H](CCCCN)C(=O)N[C@@H](Cc1cnc[nH]1)C(=O)N[C@@H](CC(C)C)C(=O)N[C@@H](CC(N)=O)C(=O)N[C@@H](CO)C(=O)N[C@@H](CCSC)C(=O)N[C@@H](CCC(=O)O)C(=O)N[C@@H](CCCNC(=N)N)C(=O)N[C@H](C(=O)N[C@@H](CCC(=O)O)C(=O)N[C@@H](Cc1c[nH]c2ccccc12)C(=O)N[C@@H](CC(C)C)C(=O)N[C@@H](CCCNC(=N)N)C(=O)N[C@@H](CCCCN)C(=O)N[C@@H](CCCCN)C(=O)N[C@@H](CC(C)C)C(=O)N[C@@H](CCC(N)=O)C(=O)N[C@@H](CC(=O)O)C(=O)N[C@H](C(=O)N[C@@H](C)C(=O)N[C@@H](CC(N)=O)C(=O)N[C@@H](Cc1ccccc1)C(N)=O)C(C)C)C(C)C` here?
A: The Activity was “Non-Toxic”.

Q: For `CC[C@H](C)[C@H](NC(=O)[C@H](CCC(=O)O)NC(=O)[C@H](CO)NC(=O)[C@@H](NC(=O)[C@H](CO)NC(C)=O)C(C)C)C(=O)N[C@@H](CCC(N)=O)C(=O)N[C@@H](CC(C)C)C(=O)N[C@@H](CCSC)C(=O)N[C@@H](Cc1cnc[nH]1)C(=O)N[C@@H](CC(N)=O)C(=O)N[C@@H](CC(C)C)C(=O)NCC(=O)N[C@@H](CCCCN)C(=O)N[C@@H](Cc1cnc[nH]1)C(=O)N[C@@H](CC(C)C)C(=O)N[C@@H](CC(N)=O)C(=O)N[C@@H](CO)C(=O)N[C@@H](CCSC)C(=O)N[C@@H](CCC(=O)O)C(=O)N[C@@H](CCCNC(=N)N)C(=O)N[C@H](C(=O)N[C@@H](CCC(=O)O)C(=O)N[C@@H](Cc1c[nH]c2ccccc12)C(=O)N[C@@H](CC(C)C)C(=O)N[C@@H](CCCNC(=N)N)C(=O)N[C@@H](CCCCN)C(=O)N[C@@H](CCCCN)C(=O)N[C@@H](CC(C)C)C(=O)N[C@@H](CCC(N)=O)C(=O)N[C@@H](CC(=O)O)C(=O)N[C@H](C(=O)N[C@@H](Cc1cnc[nH]1)C(=O)N[C@@H](C)C(=O)N[C@@H](Cc1ccccc1)C(N)=O)C(C)C)C(C)C`, which Activity is on record?
A: Its Activity is “Non-Toxic”.

Q: For `CC[C@H](C)[C@H](NC(=O)[C@H](CCC(=O)O)NC(=O)[C@H](CO)NC(=O)[C@@H](NC(=O)[C@H](CO)NC(C)=O)C(C)C)C(=O)N[C@@H](CCC(N)=O)C(=O)N[C@@H](CC(C)C)C(=O)N[C@@H](CCSC)C(=O)N[C@@H](Cc1cnc[nH]1)C(=O)N[C@@H](CC(N)=O)C(=O)N[C@@H](CC(C)C)C(=O)NCC(=O)N[C@@H](CCCCN)C(=O)N[C@@H](Cc1cnc[nH]1)C(=O)N[C@@H](CC(C)C)C(=O)N[C@@H](CC(N)=O)C(=O)N[C@@H](CO)C(=O)N[C@@H](CCSC)C(=O)N[C@@H](CCC(=O)O)C(=O)N[C@@H](CCCNC(=N)N)C(=O)N[C@H](C(=O)N[C@@H](CCC(=O)O)C(=O)N[C@@H](Cc1c[nH]c2ccccc12)C(=O)N[C@@H](CC(C)C)C(=O)N[C@@H](CCCNC(=N)N)C(=O)N[C@@H](CCCCN)C(=O)N[C@@H](C)C(=O)N[C@@H](CC(C)C)C(=O)N[C@@H](CCC(N)=O)C(=O)N[C@@H](CC(=O)O)C(=O)N[C@H](C(=O)N[C@@H](Cc1cnc[nH]1)C(=O)N[C@@H](CC(N)=O)C(=O)N[C@@H](Cc1ccccc1)C(N)=O)C(C)C)C(C)C`, which Activity is on record?
A: The Activity was “Non-Toxic”.

Q: Which Activity does the source give for `CC[C@H](C)[C@H](NC(=O)[C@H](CCC(=O)O)NC(=O)[C@H](CO)NC(=O)[C@@H](NC(=O)[C@H](CO)NC(C)=O)C(C)C)C(=O)N[C@@H](CCC(N)=O)C(=O)N[C@@H](CC(C)C)C(=O)N[C@@H](CCSC)C(=O)N[C@@H](Cc1cnc[nH]1)C(=O)N[C@@H](CC(N)=O)C(=O)N[C@@H](CC(C)C)C(=O)NCC(=O)N[C@@H](CCCCN)C(=O)N[C@@H](Cc1cnc[nH]1)C(=O)N[C@@H](CC(C)C)C(=O)N[C@@H](CC(N)=O)C(=O)N[C@@H](CO)C(=O)N[C@@H](CCSC)C(=O)N[C@@H](CCC(=O)O)C(=O)N[C@@H](CCCNC(=N)N)C(=O)N[C@H](C(=O)N[C@@H](C)C(=O)N[C@@H](Cc1c[nH]c2ccccc12)C(=O)N[C@@H](CC(C)C)C(=O)N[C@@H](CCCNC(=N)N)C(=O)N[C@@H](CCCCN)C(=O)N[C@@H](CCCCN)C(=O)N[C@@H](CC(C)C)C(=O)N[C@@H](CCC(N)=O)C(=O)N[C@@H](CC(=O)O)C(=O)N[C@H](C(=O)N[C@@H](Cc1cnc[nH]1)C(=O)N[C@@H](CC(N)=O)C(=O)N[C@@H](Cc1ccccc1)C(N)=O)C(C)C)C(C)C` here?
A: Its Activity is “Non-Toxic”.
